{
  "source": "patent US20230098667A1",
  "about": "“BENZODIAZEPINE DERIVATIVES, COMPOSITIONS, AND METHODS FOR TREATING COGNITIVE IMPAIRMENT” (priority 2019, published 2023)",
  "key": {"[1]": {"biological_target": "T1, GABAA receptors α5β3γ2 (GABA α5) (Homo sapiens, UniProt P18507+P31644)", "T1 construct": "membranes", "T1 sequence (P31644 32-462)": "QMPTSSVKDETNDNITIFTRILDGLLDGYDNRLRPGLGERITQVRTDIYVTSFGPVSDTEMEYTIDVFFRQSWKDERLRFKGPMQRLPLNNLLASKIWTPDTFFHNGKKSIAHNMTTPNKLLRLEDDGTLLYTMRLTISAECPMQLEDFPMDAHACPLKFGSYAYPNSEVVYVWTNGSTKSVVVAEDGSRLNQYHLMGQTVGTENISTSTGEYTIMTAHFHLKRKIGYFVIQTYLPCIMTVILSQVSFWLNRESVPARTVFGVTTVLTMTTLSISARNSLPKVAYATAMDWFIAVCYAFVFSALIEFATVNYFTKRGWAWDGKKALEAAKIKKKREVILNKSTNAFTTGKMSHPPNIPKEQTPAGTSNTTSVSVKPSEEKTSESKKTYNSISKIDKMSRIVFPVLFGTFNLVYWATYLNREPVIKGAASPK", "T1 sequence (P28472 26-473 partner)": "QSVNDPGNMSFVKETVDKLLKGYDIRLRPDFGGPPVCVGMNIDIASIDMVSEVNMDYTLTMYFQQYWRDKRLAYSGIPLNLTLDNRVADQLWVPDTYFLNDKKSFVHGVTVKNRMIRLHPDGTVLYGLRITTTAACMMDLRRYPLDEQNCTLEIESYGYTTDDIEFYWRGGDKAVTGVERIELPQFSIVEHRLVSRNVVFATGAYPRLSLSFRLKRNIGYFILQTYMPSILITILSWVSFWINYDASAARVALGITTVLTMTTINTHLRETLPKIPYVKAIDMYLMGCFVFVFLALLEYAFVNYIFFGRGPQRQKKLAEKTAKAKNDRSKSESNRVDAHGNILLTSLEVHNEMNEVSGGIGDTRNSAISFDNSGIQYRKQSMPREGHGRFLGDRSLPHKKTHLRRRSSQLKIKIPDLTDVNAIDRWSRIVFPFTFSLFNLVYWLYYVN", "T1 sequence (P18507 40-467 limits assumed)": "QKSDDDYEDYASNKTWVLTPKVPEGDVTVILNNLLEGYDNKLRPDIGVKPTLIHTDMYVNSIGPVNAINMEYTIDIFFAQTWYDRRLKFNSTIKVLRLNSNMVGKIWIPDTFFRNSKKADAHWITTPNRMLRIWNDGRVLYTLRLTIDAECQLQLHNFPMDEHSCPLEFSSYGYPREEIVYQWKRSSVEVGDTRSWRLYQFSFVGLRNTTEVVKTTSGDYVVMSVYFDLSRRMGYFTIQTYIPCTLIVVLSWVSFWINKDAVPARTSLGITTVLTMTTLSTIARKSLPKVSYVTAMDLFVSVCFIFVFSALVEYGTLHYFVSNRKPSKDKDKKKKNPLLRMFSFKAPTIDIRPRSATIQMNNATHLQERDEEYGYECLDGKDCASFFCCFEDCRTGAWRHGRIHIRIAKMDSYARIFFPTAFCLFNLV", "test": "Binding activity on GABAAR: inhibition of [3H]Ro15-1788 binding, membranes of Ltk cells", "conditions": "α5β3γ2 Ltk cell membranes", "method": "Tissue culture and Membrane Preparation: The binding was performed on Ltk cells stably expressing GABAA receptors: α1β1γ2, α2β3γ2, α3β3γ2 and α5β3γ2 (provided by Merck Co., NJ, USA). Cells were seeded in 100 mm culture plates in DMEM/F12 medium containing 10% serum and antibiotics in 5% CO2 and allowed to grow for 1-2 days. GABAAR expression was then induced by dexamethasone as follows: 0.5 μM for 1 day for α5 containing and 2 μM for 3 days for α1, α2 and α3 containing GABAARs. After induction, cells were collected by scraping into Dulbecco's Phosphate buffered saline (DPBS, pH 7.4, Invitrogen, Carlsbad, Calif., USA) and centrifuged at 150×g for 10 min. The pellet was washed twice by re-suspension and centrifugation. The cell pellets from at least 5 different preps were combined, suspended in the binding assay buffer (50 mM KH2PO4; 1 mM EDTA; 0.2 M KCl, pH 7.4) and membranes prepared by sonication (3-5 times, 30 sec) using Branson Sonifier 150 (G. Heinmann, Germany). Protein content was determined using BCA assay (Bio-Rad Labs, Reinach, Switzerland) with Bovine Serum Albumin (Sigma Aldrich, St. Louis, Mo., USA) as the standard. Aliquots were prepared and stored at −20° C. for further use in binding assays.\nLigand Binding: Saturation binding curves were obtained by incubating membranes with increasing concentrations (0.01-8 nM) of [^3H]Rol5-1788 (Flumazepil, 75-85 Ci/mmol, PerkinElmer, MA, USA), with nonspecific binding measured in the presence of 10 μM diazepam.\nAll binding assays were performed for 1 h at 4° C. in assay buffer. The total assay volume was 0.5 ml containing 0.2 mg/ml protein for α5 and 0.4 mg/ml for α1, α2, and α3 containing GABAAR membranes. Incubations were terminated by filtration through GF/B filters using a 24-Cell Harvestor (Brandel, Gaithersburg, Md., USA) followed by 3 washes with ice-cold assay buffer. Filters were transferred to scintillation vials, 5 ml scintillation liquid added, vortex-mixed and kept in dark. Next day, radioactivity was obtained using a scintillation counter (Beckman Coulter, Brea, Calif., USA). All assays were performed in triplicate.\nData Analyses: Saturation and inhibition curves were obtained using GraphPad Prism software (GraphPad Software, Inc., CA, USA)."}, "GABAA α5 receptor": {"biological_target": "T2, GABAA α5 receptor (Rattus norvegicus, UniProt P19969)", "T2 construct": "from tissue; host or cells: brain of living Long Evans rats; hippocampus and cerebellum dissected after i.v. dosing", "T2 sequence (P19969 32-464 limits assumed)": "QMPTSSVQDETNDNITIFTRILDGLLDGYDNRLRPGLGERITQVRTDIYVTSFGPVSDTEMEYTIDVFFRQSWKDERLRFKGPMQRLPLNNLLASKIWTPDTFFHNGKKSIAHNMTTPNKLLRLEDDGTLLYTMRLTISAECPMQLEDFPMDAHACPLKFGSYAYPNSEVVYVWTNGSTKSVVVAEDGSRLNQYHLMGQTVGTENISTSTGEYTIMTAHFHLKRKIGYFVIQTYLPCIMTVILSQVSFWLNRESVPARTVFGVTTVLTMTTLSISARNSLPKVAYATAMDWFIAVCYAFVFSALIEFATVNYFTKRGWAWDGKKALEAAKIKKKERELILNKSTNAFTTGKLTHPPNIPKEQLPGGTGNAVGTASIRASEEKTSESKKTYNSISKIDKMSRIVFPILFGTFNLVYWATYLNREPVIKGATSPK", "test": "GABAA α5 receptor occupancy with Ro 15-4513 tracer", "assay_type": "in vivo, Long Evans rats", "conditions": "i.v.", "from_the_text": "Food and water were available ad libitum."}, "aged-impaired (AI) rats [2]": {"tested_on": "aged-impaired (AI) rats", "test": "Radial Arm Maze (RAM) behavioral task, four-hour delay", "assay_type": "in vivo, rat", "procedure": "The same experiment was repeated using the same vehicle control and doses of ethyl 3-methoxy-7-methyl-9H-benzo[f]imidazo[1,5-a][1,2,4]triazolo[4,3-d][1,4]diazepine-10-carboxylate, where the vehicle control was tested 5 times, the 3 mg/kg dose of ethyl 3-methoxy-7-methyl-9H-benzo[f]imidazo[1,5-a][1,2,4]triazolo[4,3-d][1,4]diazepine-10-carboxylate was tested 4 times, and the other doses of ethyl 3-methoxy-7-methyl-9H-benzo[f]imidazo[1,5-a][1,2,4]triazolo[4,3-d][1,4]diazepine-10-carboxylate were tested twice.\nParametric statistics (paired t-tests) was used to compare the retention test performance of the AI rats in the four-hour delay version of the RAM task in the context of different doses of ethyl 3-methoxy-7-methyl-9H-benzo[f]imidazo[1,5-a][1,2,4]triazolo[4,3-d][1,4]diazepine-10-carboxylate and vehicle control (see FIG. 5)."}, "aged-impaired (AI) rats [3]": {"tested_on": "aged-impaired (AI) rats", "test": "Morris water maze behavioral task", "assay_type": "in vivo, rat", "conditions": "100 μg ICV", "method": "The effects of 6,6 dimethyl-3-(3-hydroxypropyl)thio-1-(thiazol-2-yl)-6,7-dihydro-2-benzothiophen-4(5H)-one on the in vivo spatial memory retention of aged-impaired (AI) rats were assessed in a Morris water maze behavioral task. A water maze is a pool surrounded with a novel set of patterns relative to the maze.\nCognitively impaired aged rats were implanted unilaterally with a cannula into the lateral ventricle. Stereotaxic coordinates were 1.0 mm posterior to bregma, 1.5 mm lateral to midline, and 3.5 mm ventral to the skull surface. After about a week of recovery, the rats were pre-trained in a water maze for 2 days (6 trials per day) to locate a submerged escape platform hidden underneath the surface of the pool, in which the escape platform location varied from day to day. No intracerebroventricular (ICV) infusion was given during pre-training.\nAfter pre-training, rats received ICV infusion of either 100 μg 6,6 dimethyl-3-(3-hydroxypropyl)thio-1-(thiazol-2-yl)-6,7-dihydro-2-benzothiophen-4(5H)-one (n=6) in 5 μl DMSO or vehicle DMSO (n=5) 40 min prior to water maze training and testing. Training consisted of 8 trials per day for 2 days where the hidden escape platform remained in the same location. Rats were given 60 seconds to locate the platform with a 60 seconds inter-trial interval. The rats were given a probe test (120 seconds) 24 hr. after the end of training where the escape platform was removed. During the training, there were 4 blocks, where each block had 4 training trials.\nDuring a test trial 24 hr. after training, the escape platform was removed. The search/swim pattern of the rats was used to measure whether the rats remember where the escape platform was located during pre-trial training in order to test for the long-term memory of the rats. In this trial, “target annulus” is a designated area 1.5 times the size of the escape platform around the area where the platform was located during pre-trial training. “Opposite annulus” is a control area of the same size as the size of the target annulus, which is located opposite to the target annulus in the pool. If the rats had good long term memory, they would tend to search in the area surrounding the location where the platform was during the pre-trial training (i.e., the “target” annulus; and not the “opposite” annulus). “Time in annulus” is the amount of time in seconds that the rat spent in the target or opposite annulus area. “Number (#) of crossings” in annulus is the number of times the rat swam across the target or opposite annulus area."}, "[4]": {"conditions": "probe test 24 hr. after training"}},
  "note": "“Also recorded” adds a separate entry of the source.",
  "data": [
    {"molecule": "COCc1nnc2n1Cc1c(C#Cc3cn(C)nc3OC)ncn1-c1ccc(Cl)cc1-2", "note": "[Compound 737]", "values": [
      {"measurement": "Ki", "setting": "[1]", "value": "< 100", "unit": "nM"}
    ]},
    {"molecule": "COCc1nnc2n1Cc1c(C#Cc3cnc(OC)c(C(F)(F)F)c3)ncn1-c1ccc(OC)cc1-2", "note": "[Compound 731]", "values": [
      {"measurement": "Ki", "setting": "[1]", "value": "100 to 1000", "unit": "nM"}
    ]},
    {"molecule": "COc1ccc2c(c1)-n1nncc1Cc1c(C#Cc3cnc(OC)c(F)c3)ncn1-2", "note": "[Compound 732]", "values": [
      {"measurement": "Ki", "setting": "[1]", "value": "100 to 1000", "unit": "nM"}
    ]},
    {"molecule": "CCOC(=O)c1ncn2c1CN(C)C(=O)c1cc(N=[N+]=[N-])ccc1-2", "note": "[Ro 15-4513]", "values": [
      {"measurement": "levels of Ro 15-4513 in cerebellum", "setting": "GABAA α5 receptor; tracer 1 μg/kg, after vehicle", "value": "0.36 ± 0.02", "unit": "ng/g"},
      {"measurement": "levels of Ro 15-4513 in hippocampus", "setting": "GABAA α5 receptor; tracer 1 μg/kg, after vehicle", "value": "1.93 ± 0.05", "unit": "ng/g"},
      {"measurement": "levels of Ro 15-4513 in hippocampus compared with cerebellum", "setting": "GABAA α5 receptor; tracer 1 μg/kg, after vehicle", "value": "> 5", "unit": "fold"}
    ]},
    {"molecule": "COCc1nnc2n1Cc1c(C#Cc3cn(C)nc3OC)ncn1-c1ccc(OC)cc1-2", "note": "[Compound 736]", "values": [
      {"measurement": "Ki", "setting": "[1]", "value": "< 100", "unit": "nM"}
    ]},
    {"molecule": "COCc1nnn2c1Cc1c(C#Cc3cnc(C)n3C)ncn1-c1ccc(Cl)cc1-2", "note": "[Compound 740]", "values": [
      {"measurement": "Ki", "setting": "[1]", "value": "< 100", "unit": "nM"}
    ]},
    {"molecule": "COCc1nnn2c1Cc1c(C#Cc3cn(C)nc3OC)ncn1-c1ccc(Cl)cc1-2", "note": "[Compound 738]", "values": [
      {"measurement": "Ki", "setting": "[1]", "value": "< 100", "unit": "nM"}
    ]},
    {"molecule": "CCOC(=O)c1ncn2c1Cn1c(C)nnc1-c1cc(OC)ccc1-2", "note": "[ethyl 3-methoxy-7-methyl-9H-benzo[f]imidazo[1,5-a][1,2,4]triazolo[4,3-d][1,4]diazepine-10-carboxylate]", "values": [
      {"measurement": "effect on Ro 15-4513 binding in hippocampus and cerebellum", "setting": "GABAA α5 receptor; 0.01-10 mg/kg", "value": "reduced Ro 15-4513 binding in hippocampus, without affecting cerebellum levels of Ro 15-4513; also recorded: blocked the binding of Rol54513 in the hippocampus but did not affect binding of Rol5413 in the cerebellum"},
      {"measurement": "GABAA α5 receptor occupancy", "setting": "GABAA α5 receptor; 10 mg/kg", "value": "> 90", "unit": "%"},
      {"measurement": "memory performance relative to vehicle control", "setting": "aged-impaired (AI) rats [2]; 3 mg/kg", "value": "significantly improved memory performance"},
      {"measurement": "memory performance relative to vehicle control", "setting": "aged-impaired (AI) rats [2]; 10 mg/kg", "value": "significantly improved memory performance"}
    ]},
    {"molecule": "COc1ccc2c(c1)-n1nncc1Cc1c(C#Cc3cn(C)nc3OC)ncn1-2", "note": "[Compound 735]", "values": [
      {"measurement": "Ki", "setting": "[1]", "value": "< 100", "unit": "nM"}
    ]},
    {"molecule": "COc1ncc(C#Cc2ncn3c2Cc2cnnn2-c2cc(Cl)ccc2-3)cc1F", "note": "[Compound 734]", "values": [
      {"measurement": "Ki", "setting": "[1]", "value": "< 100", "unit": "nM"}
    ]},
    {"molecule": "CC1(C)CC(=O)c2c(SCCCO)sc(-c3nccs3)c2C1", "note": "[6,6 dimethyl-3-(3-hydroxypropyl)thio-1-(thiazol-2-yl)-6,7-dihydro-2-benzothiophen-4(5H)-one]", "values": [
      {"measurement": "number of crossings of target annulus versus opposite annulus", "setting": "aged-impaired (AI) rats [3]; [4]", "value": "crossed the “target annulus” more often"},
      {"measurement": "time in target annulus versus opposite annulus", "setting": "aged-impaired (AI) rats [3]; [4]", "value": "spent significantly more time in the target annulus"},
      {"measurement": "time to find the escape platform (escape latency)", "setting": "aged-impaired (AI) rats [3]; training block 1", "value": "about 24 seconds"},
      {"measurement": "time to find the escape platform (escape latency)", "setting": "aged-impaired (AI) rats [3]; training block 4", "value": "about 9.6 seconds"}
    ]}
  ]
}
